Test results published in PubChem BioAssay AID1918943 (Molecular Pharmacology Branch, DTP, NCI, 2023).
Where “and” joins values, the source holds several entries; their conditions need not be identical. Equal entries are not always repeated. Each block holds one compound with its values, some of them ahead of it.

Test system: 855422-203-R-J1-PDC complex spheroid viability
Assay: Anticancer human tumor 855422-203-R-J1-PDC patient-derived bladder carcinoma cell line growth inhibition
Details: for viability, T/C: stronger effect = lower value
Outline: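 Drug combinations with the LSD1 inhibitor iadademstat tested on tumor cells co-cultured as spheroids with endothelial cells and mesenchymal stem cells. Concentrations descended in half-log increments from clinical Cmax or 10 microM.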

[1] = curve of first compound, second compound 0.1 µM
[2] = curve of first compound, second compound 0.316 µM
[3] = curve of first compound, second compound 1 µM
[4] = curve of first compound, second compound 3.16 µM
[5] = curve of first compound, second compound 10 µM
[6] = second compound 0.1 µM, first compound 0.00949 µM
[7] = second compound 0.1 µM, first compound 0.03 µM
[8] = second compound 0.1 µM, first compound 0.0949 µM
[9] = second compound 0.1 µM, first compound 0.3 µM
[10] = second compound 0.1 µM, first compound 0.949 µM
[11] = second compound 0.1 µM, first compound 3 µM
[12] = second compound 0.316 µM, first compound 0.00949 µM
[13] = second compound 0.316 µM, first compound 0.03 µM
[14] = second compound 0.316 µM, first compound 0.0949 µM
[15] = second compound 0.316 µM, first compound 0.3 µM
[16] = second compound 0.316 µM, first compound 0.949 µM
[17] = second compound 0.316 µM, first compound 3 µM
[18] = second compound 1 µM, first compound 0.00949 µM
[19] = second compound 1 µM, first compound 0.03 µM
[20] = second compound 1 µM, first compound 0.0949 µM
[21] = second compound 1 µM, first compound 0.3 µM
[22] = second compound 1 µM, first compound 0.949 µM
[23] = second compound 1 µM, first compound 3 µM
[24] = second compound 3.16 µM, first compound 0.00949 µM
[25] = second compound 3.16 µM, first compound 0.03 µM
[26] = second compound 3.16 µM, first compound 0.0949 µM
[27] = second compound 3.16 µM, first compound 0.3 µM
[28] = second compound 3.16 µM, first compound 0.949 µM
[29] = second compound 3.16 µM, first compound 3 µM
[30] = second compound 10 µM, first compound 0.00949 µM
[31] = second compound 10 µM, first compound 0.03 µM
[32] = second compound 10 µM, first compound 0.0949 µM
[33] = second compound 10 µM, first compound 0.3 µM
[34] = second compound 10 µM, first compound 0.949 µM
[35] = second compound 10 µM, first compound 3 µM
[36] = second compound 0.1 µM, first compound 0.0316 µM
[37] = second compound 0.1 µM, first compound 0.1 µM
[38] = second compound 0.1 µM, first compound 0.316 µM
[39] = second compound 0.1 µM, first compound 1 µM
[40] = second compound 0.316 µM, first compound 0.0316 µM
[41] = second compound 0.316 µM, first compound 0.1 µM
[42] = second compound 0.316 µM, first compound 0.316 µM
[43] = second compound 0.316 µM, first compound 1 µM
[44] = second compound 1 µM, first compound 0.0316 µM
[45] = second compound 1 µM, first compound 0.1 µM
[46] = second compound 1 µM, first compound 0.316 µM
[47] = second compound 1 µM, first compound 1 µM
[48] = second compound 3.16 µM, first compound 0.0316 µM
[49] = second compound 3.16 µM, first compound 0.1 µM
[50] = second compound 3.16 µM, first compound 0.316 µM
[51] = second compound 3.16 µM, first compound 1 µM
[52] = second compound 10 µM, first compound 0.0316 µM
[53] = second compound 10 µM, first compound 0.1 µM
[54] = second compound 10 µM, first compound 0.316 µM
[55] = second compound 10 µM, first compound 1 µM
[56] = second compound 0.1 µM, first compound 0.00316 µM
[57] = second compound 0.1 µM, first compound 0.01 µM
[58] = second compound 0.316 µM, first compound 0.00316 µM
[59] = second compound 0.316 µM, first compound 0.01 µM
[60] = second compound 1 µM, first compound 0.00316 µM
[61] = second compound 1 µM, first compound 0.01 µM
[62] = second compound 3.16 µM, first compound 0.00316 µM
[63] = second compound 3.16 µM, first compound 0.01 µM
[64] = second compound 10 µM, first compound 0.00316 µM
[65] = second compound 10 µM, first compound 0.01 µM
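Also: drug exposure lasted 7 days starting on day 3 after seeding.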
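For viability, T/C in this document: luminescence viability as percent of DMSO vehicle wells = 100%.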

SMILES: NS(=O)(=O)OCC1CC(n2ccc3c(NC4CCc5ccccc54)ncnc32)CC1O (centres undefined) + NC1CC1c1ccc(-c2cccc(O)c2)cc1
IC50 [1]: 802 nM
IC50 [2]: 848 nM
IC50 [3]: 1140 nM
IC50 [4]: 769 nM
IC50 [5]: 532 nM
viability, T/C [6]: 102%
viability, T/C [7]: 112%
viability, T/C [8]: 115%
viability, T/C [9]: 105%
viability, T/C [10]: 40.5%
viability, T/C [11]: 12.2%
viability, T/C [12]: 100%
viability, T/C [13]: 113%
viability, T/C [14]: 114%
viability, T/C [15]: 105%
viability, T/C [16]: 44.1%
viability, T/C [17]: 13.4%
viability, T/C [18]: 108%
viability, T/C [19]: 115%
viability, T/C [20]: 98.7%
viability, T/C [21]: 102%
viability, T/C [22]: 56.8%
viability, T/C [23]: 13.9%
viability, T/C [24]: 99.7%
viability, T/C [25]: 114%
viability, T/C [26]: 102%
viability, T/C [27]: 105%
viability, T/C [28]: 37.7%
viability, T/C [29]: 14.1%
viability, T/C [30]: 95.4%
viability, T/C [31]: 99.5%
viability, T/C [32]: 93.8%
viability, T/C [33]: 69%
viability, T/C [34]: 30.5%
viability, T/C [35]: 10.9%

SMILES: CC(C)c1c(-c2ccccc2)nc2c(C#N)c[nH]n2c1=O + NC1CC1c1ccc(-c2cccc(O)c2)cc1
IC50 [1]: > 10000 nM
IC50 [2]: > 10000 nM
IC50 [3]: > 10000 nM
IC50 [4]: > 10000 nM
IC50 [5]: > 10000 nM
viability, T/C [36]: 96.8%
viability, T/C [37]: 109%
viability, T/C [38]: 93.8%
viability, T/C [39]: 95.7%
viability, T/C (second compound 0.1 µM, first compound 3.16 µM): 95.5%
viability, T/C (second compound 0.1 µM, first compound 10 µM): 86.2%
viability, T/C [40]: 98.2%
viability, T/C [41]: 94.7%
viability, T/C [42]: 99.7%
viability, T/C [43]: 87.4%
viability, T/C (second compound 0.316 µM, first compound 3.16 µM): 88%
viability, T/C (second compound 0.316 µM, first compound 10 µM): 83.6%
viability, T/C [44]: 96.5%
viability, T/C [45]: 102%
viability, T/C [46]: 93.6%
viability, T/C [47]: 86.2%
viability, T/C (second compound 1 µM, first compound 3.16 µM): 90.5%
viability, T/C (second compound 1 µM, first compound 10 µM): 80.4%
viability, T/C [48]: 98.8%
viability, T/C [49]: 96%
viability, T/C [50]: 94.2%
viability, T/C [51]: 88.9%
viability, T/C (second compound 3.16 µM, first compound 3.16 µM): 86.1%
viability, T/C (second compound 3.16 µM, first compound 10 µM): 83.7%
viability, T/C [52]: 86.1%
viability, T/C [53]: 86.6%
viability, T/C [54]: 88.7%
viability, T/C [55]: 86.9%
viability, T/C (second compound 10 µM, first compound 3.16 µM): 81.3%
viability, T/C (second compound 10 µM, first compound 10 µM): 73.9%

SMILES: CC(C)CC(NC(=O)CNC(=O)c1cc(Cl)ccc1Cl)B1OC(=O)CC(CC(=O)O)(C(=O)O)O1 (centres undefined) + NC1CCC(NC2CC2c2ccccc2)CC1
IC50 [1]: 1.8 nM
IC50 [2]: 1.7 nM
IC50 [3]: 1.67 nM
IC50 [4]: 1.63 nM
IC50 [5]: 1.52 nM
viability, T/C (second compound 0.1 µM, first compound 0.000316 µM): 95.9%
viability, T/C (second compound 0.1 µM, first compound 0.001 µM): 89.3%
viability, T/C [56]: 12.2%
viability, T/C [57]: 1.62%
viability, T/C [36]: 0.03%
viability, T/C [37]: 0.09%
viability, T/C (second compound 0.316 µM, first compound 0.000316 µM): 100%
viability, T/C (second compound 0.316 µM, first compound 0.001 µM): 90.4%
viability, T/C [58]: 3.11%
viability, T/C [59]: 1.91%
viability, T/C [40]: 0.02%
viability, T/C [41]: 0.09%
viability, T/C (second compound 1 µM, first compound 0.000316 µM): 91.9%
viability, T/C (second compound 1 µM, first compound 0.001 µM): 87%
viability, T/C [60]: 3.87%
viability, T/C [61]: 0.69%
viability, T/C [44]: 0.02%
viability, T/C [45]: 0.1%
viability, T/C (second compound 3.16 µM, first compound 0.000316 µM): 89.8%
viability, T/C (second compound 3.16 µM, first compound 0.001 µM): 85.3%
viability, T/C [62]: 2.25%
viability, T/C [63]: 0.69%
viability, T/C [48]: 0.04%
viability, T/C [49]: 0.1%
viability, T/C (second compound 10 µM, first compound 0.000316 µM): 77.6%
viability, T/C (second compound 10 µM, first compound 0.001 µM): 76.9%
viability, T/C [64]: 2.8%
viability, T/C [65]: 0.29%
viability, T/C [52]: 0.12%
viability, T/C [53]: 3.15%

IC50 (curve of compound): 399 nM and 444 nM
SMILES: O=C(C=Cc1cccc(S(=O)(=O)Nc2ccccc2)c1)NO
viability, T/C (compound 0.00949 µM): 90.4% and 96.6%
viability, T/C (compound 0.03 µM): 104% and 108%
viability, T/C (compound 0.0949 µM): 82% and 112%
viability, T/C (compound 0.3 µM): 64.3% and 65.9%
viability, T/C (compound 0.949 µM): 12.3% and 17.6%
viability, T/C (compound 3 µM): 0.4% and 0.43%

SMILES: Nc1ncn(C2CC(O)C(CO)O2)c(=O)n1 (centres undefined) + NC1CCC(NC2CC2c2ccccc2)CC1
IC50 [1]: > 1000 nM
IC50 [2]: > 1000 nM
IC50 [3]: > 1000 nM
IC50 [4]: > 1000 nM
IC50 [5]: > 1000 nM
viability, T/C [56]: 91.5%
viability, T/C [57]: 91.2%
viability, T/C [36]: 95.6%
viability, T/C [37]: 85.5%
viability, T/C [38]: 83.1%
viability, T/C [39]: 85.2%
viability, T/C [58]: 93.6%
viability, T/C [59]: 93.1%
viability, T/C [40]: 90.2%
viability, T/C [41]: 92.2%
viability, T/C [42]: 83%
viability, T/C [43]: 84.7%
viability, T/C [60]: 88.6%
viability, T/C [61]: 94.5%
viability, T/C [44]: 93.6%
viability, T/C [45]: 86.4%
viability, T/C [46]: 90.1%
viability, T/C [47]: 85.3%
viability, T/C [62]: 87.5%
viability, T/C [63]: 81.1%
viability, T/C [48]: 79.7%
viability, T/C [49]: 91.4%
viability, T/C [50]: 85.9%
viability, T/C [51]: 88.9%
viability, T/C [64]: 84.3%
viability, T/C [65]: 86.9%
viability, T/C [52]: 85.3%
viability, T/C [53]: 88.4%
viability, T/C [54]: 88.2%
viability, T/C [55]: 80.5%

IC50 (curve of compound): > 3000 nM
SMILES: CCN(c1cc(-c2ccc(CN3CCOCC3)cc2)cc(C(=O)NCc2c(C)cc(C)[nH]c2=O)c1C)C1CCOCC1
viability, T/C (compound 0.00949 µM): 105% and 109%
viability, T/C (compound 0.03 µM): 95.1% and 101%
viability, T/C (compound 0.0949 µM): 94.6% and 97.5%
viability, T/C (compound 0.3 µM): 86.5% and 91.6%
viability, T/C (compound 0.949 µM): 88% and 88.5%
viability, T/C (compound 3 µM): 84.7% and 89%

SMILES: CCN(c1cc(-c2ccc(CN3CCOCC3)cc2)cc(C(=O)NCc2c(C)cc(C)[nH]c2=O)c1C)C1CCOCC1 + NC1CC1c1ccc(-c2cccc(O)c2)cc1
IC50 [1]: > 3000 nM
IC50 [2]: > 3000 nM
IC50 [3]: > 3000 nM
IC50 [4]: > 3000 nM
IC50 [5]: > 3000 nM
viability, T/C [6]: 90.2%
viability, T/C [7]: 96.8%
viability, T/C [8]: 99%
viability, T/C [9]: 98%
viability, T/C [10]: 89%
viability, T/C [11]: 84.9%
viability, T/C [12]: 89%
viability, T/C [13]: 96.8%
viability, T/C [14]: 96.5%
viability, T/C [15]: 105%
viability, T/C [16]: 93%
viability, T/C [17]: 99.2%
viability, T/C [18]: 91.4%
viability, T/C [19]: 89.3%
viability, T/C [20]: 97.7%
viability, T/C [21]: 88.7%
viability, T/C [22]: 87.7%
viability, T/C [23]: 86.4%
viability, T/C [24]: 102%
viability, T/C [25]: 94%
viability, T/C [26]: 91.6%
viability, T/C [27]: 103%
viability, T/C [28]: 95.1%
viability, T/C [29]: 97.7%
viability, T/C [30]: 99.9%
viability, T/C [31]: 101%
viability, T/C [32]: 91.4%
viability, T/C [33]: 94.7%
viability, T/C [34]: 97.8%
viability, T/C [35]: 92.6%
